{"source": "patent US12467038B2", "about": "“Methods of culturing human pluripotent cells” (Hadasit Medical Research Services and Development Ltd., priority 2019, dated 2025)", "type_in_all_cases": "cell-based, human", "key": {"[1]": {"system": "hPSCs", "test": "Extended propagation and karyotype analysis", "experimental": "hPSC culture—hPSC culture—hPSC lines HES-1, HES-2 (10), HADC100, HADC102 (36) and H7 (9) were cultured on human foreskin feeders in serum free medium as described (30, 87). hPSC culturing in suspension was performed as reported (31) with minor modifications of the culture medium that was composed of Neurobasal medium, 14% KO-SR, L-glutamine 2 mM, 50 units/ml penicillin, 50 μg/ml streptomycin, 1% nonessential amino acids (all from Invitrogen, Carlsbad, Calif., USA). The medium was supplemented with FGF2 20 ng/ml, and activin A 25 ng/ml (both from Peprotech, Rocky Hill, N.J., USA), and laminin 0.5 μg/ml (Sigma-Aldrich, St. Louis, Mo., USA). For hPSC culturing on mouse LN111, 3-D Culture Matrix Laminin I (CULTREX, TREVIGEN, #3446-005-01, Gaithersburg, Md., USA) was diluted to a concentration of 1 mg/ml. Tissue culture dishes were coated with LN111, incubated overnight at 37° C. to promote matrix gelling, and washed with PBS. hPSCs were cultured on LN111 in a chemically defined medium composed of DMEM/F12, B27 supplement (1:50), N2 supplement (1:100) 2 mM L-glutamine, 50 units/ml penicillin, 50 μg/ml streptomycin (all from Invitrogen), and supplemented with 20 ng/ml bFGF (Peprotech). The cells were cultured in 5% CO2, 5% O2 incubator They were passaged every 7 days as small clusters by treatment with 1 mg/ml collagenase type IV (Invitrogen), and plated in a medium containing 5 μM ROCK inhibitor. hPSC culture under naïve conditions was performed using the 5iLFA protocol (20).\nAlkaline phosphatase activity detection and karyotyping—Detection of alkaline phosphatase activity was performed on hPSC colonies using the Alkaline Phosphatase Staining Kit II (Stemgent, Cambridge, Mass., USA) according to the manufacturer's instructions. Karyotype analysis, was performed on 3-4 day hPSC colonies."}, "[2]": {"system": "LN-hPSCs", "test": "FACS analysis of pluripotency cell-surface markers", "conditions": "HES-1 cells cultured on LN111", "experimental": "Signaling pathways analysis—hPSCs were cultured on LN111 for 2 days in complete medium, and then for additional 3-5 days in a medium+/−FGF2 in the presence of the following small molecules: PD032590 1 μM (Peprotech), LY294002 10 μM, SB431542 10 μM, CHIR99021 3 μM (all from Cayman Chemical, Michigan, USA), XAV939 2.5 μM (Peprotech), BMP4 50 ng/ml (Biogems-Peprotech). FACS analysis—FACS analyses were performed using the following primary antibodies: mouse IgM anti-TRA-1-60 (1:100; mab4360, R&D), and mouse IgM anti-TRA-1-81 (1:100; mab4381, R&D), and Rat IgM anti-SSEA-3. Staining with respective isotype control antibodies (all from eBiosciences) served as controls. Detection of primary antibodies was performed using the following secondary antibodies: FITC-conjugated Polyclonal Goat Anti-Mouse Immunoglobulins (1:100; Dako, Glostrup, Denmark), APC-conjugated Goat anti-Mouse IgM/G (1:200; Cat. No. 1020-11, SouthernBiotech, Birmingham, Ala., USA), and APC-conjugated anti-Rat (1:200; eBioscience). FACS analysis was performed on a FACScalibur system (Becton-Dickinson, San Jose, Calif.) using the Cellquest software. A detailed FACS procedure is described elsewhere. FACS analysis—FACS analyses for pluripotency marker expression were performed using mouse anti-TRA-1-60 (1:100; mab4360, R&D), and mouse anti-TRA-1-81 (1:100; mab4381, R&D). […]"}, "[3]": {"system": "hPSCs", "test": "Undifferentiated propagation and PGC differentiation of hPSCs on laminin", "conditions": "HES-2 hPSCs", "experimental": "LN-hPSCs were cultured on mouse LN111, 3-D Culture Matrix Laminin I (CULTREX, TREVIGEN, #3446-005-01, Gaithersburg, Md., USA). 0.175 ml diluted LN111 (1:14 to a coating concentration of 0.43 mg/ml) was used to coat a well of a 6-well culture dish, leaving a margin of 2-3 mm at the well edge (a final concentration of ˜8 microgram/cm^2). The coated dishes were incubated from 4 hours to 4 days, at 37° C., and washed with PBS before use. LN-hPSCs were cultured in a medium composed of DMEM/F12, B27 supplement (1:50), N2 supplement (1:100), 2 mM L-glutamine, 50 units/ml penicillin, 50 μg/ml streptomycin (all from Invitrogen), and supplemented daily with 20 ng/ml FGF2 (Peprotech). Cells were passaged every 5-6 days using 1.5 mg/ml collagenase type IV (Invitrogen). 5 μM ROCK inhibitor (Y-27632, Peprotech) was added for the first day after passaging.\nhPSCs were cultured on human recombinant LN521 (BIOLAMINA, Sundbyberg, Sweden). Coating of culture dishes with hrLN521 was performed according to the manufacturer's instructions (Coating concentration ˜0.45 microgram/cm^2). Cells were cultured in the same medium used for culturing LN-hPSCs, and passaged with collagenase type IV.\nPGC differentiation of hPSCs in suspension—LN-hPSCs and hPSCs cultured on hrLN-521 were dissociated into a single-cell suspension using TrypLE Select Enzyme (Invitrogen). Primed hPSCs were first dissociated from the MEF feeders by treatment with collagenase type IV, followed by dissociation into single cells by TrypLE Select Enzyme. 2000-3000 cells were seeded into a microwell of AggreWell™800 24-well plate (STEMCELL Technologies), and cultured as EBs in suspension, in PGCLC differentiation medium as described elsewhere (Irie et al., 2015)."}}, "data": [{"substance": "LN111: mouse LN111, 3-D Culture Matrix Laminin I (CULTREX, TREVIGEN), coating of culture dishes", "values": [{"measurement": "extended undifferentiated propagation", "setting": "[1]; HADC100", "result": 6, "unit": "passages"}, {"measurement": "extended undifferentiated propagation", "setting": "[1]; HADC102", "result": 8, "unit": "passages"}, {"measurement": "passages propagated while maintaining a normal karyotype", "setting": "[1]; HES-1 cells", "result": "at least 10 passages"}, {"measurement": "cells expressing TRA-1-60 and TRA-1-81", "setting": "[2]", "result": "over 90%"}, {"measurement": "competence to initiate germ cell specification", "setting": "[3]", "result": "competent to initiate germ cell specification"}]}]}
